{"source": "ChEMBL document CHEMBL6087402", "about": "“Design, synthesis, and in vitro and in vivo biological evaluation of dihydroartemisinin derivatives as potent anti-cancer agents with ferroptosis-inducing and apoptosis-activating properties” (Eur J Med Chem, 2025)", "key": {"HCT-116 [1]": {"test_system": "HCT-116", "test": "Cytotoxicity against human HCT-116 cells assessed as cell viability at 5 uM", "format": "functional, cell-based"}, "A549": {"test_system": "A549", "test": "Anti-proliferative activity against human A549 cells incubated for 72 hrs by MTT assay", "format": "functional, cell-based", "conditions": "A549, 72 h"}, "Bel-7402": {"test_system": "Bel-7402", "test": "Anti-proliferative activity against human Bel-7402 cells incubated for 72 hrs by MTT assay", "format": "functional, cell-based", "conditions": "Bel-7402, 72 h"}, "HCT-116 [2]": {"test_system": "HCT-116", "test": "Anti-proliferative activity against human HCT-116 cells incubated for 72 hrs by MTT assay", "format": "functional, cell-based", "conditions": "HCT-116, 72 h"}, "SW-620": {"test_system": "SW-620", "test": "Anti-proliferative activity against human SW620 cells incubated for 72 hrs by MTT assay", "format": "functional, cell-based", "conditions": "SW-620, 72 h"}, "[3]": {"test": "Selectivity index, ratio of IC50 for human L02 cells to IC50 for human A549 cells", "format": "toxicity", "conditions": "L02 cells versus A549 cells, read-out: Ratio IC50"}, "[4]": {"test": "Selectivity index, ratio of IC50 for human L02 cells to IC50 for human Bel-7402 cells", "format": "toxicity", "conditions": "L02 cells versus Bel-7402 cells, read-out: Ratio IC50"}, "[5]": {"test": "Selectivity index, ratio of IC50 for human L02 cells to IC50 for human HCT-116 cells", "format": "toxicity", "conditions": "L02 cells versus HCT-116 cells, read-out: Ratio IC50"}, "[6]": {"test": "Selectivity index, ratio of IC50 for human L02 cells to IC50 for human SW620 cells", "format": "toxicity", "conditions": "L02 cells versus SW620 cells, read-out: Ratio IC50"}, "[7]": {"test": "Anti-proliferative activity against human L02 cells incubated for 72 hrs by MTT assay", "format": "toxicity, cell-based"}, "HCT-116 [8]": {"test_system": "HCT-116", "test": "Inhibition of cell proliferation in human HCT-116 cells at 3 uM incubated for 12 hrs by EdU assay (reference value: 48.14 %)", "format": "functional"}, "HCT-116 [9]": {"test_system": "HCT-116", "test": "Cytotoxicity against human HCT-116 cells assessed as cell viability upto 20 uM", "format": "functional, cell-based"}, "HCT-116 [10]": {"test_system": "HCT-116", "test": "Cytotoxicity against human HCT-116 cells assessed as cell viability at 10 uM", "format": "functional, cell-based"}}, "note": "Activity calls are given as the source filed them. No cut-off for these calls is given here. Peptide text beside a SMILES is read from it. * marks the point of attachment. Cbz = O=C(OCc1ccccc1)*; CH2F = FC*", "data": [{"smiles": "CC(=O)N(O)CCCCCNC(=O)CCC(=O)N(O)CCCCCNC(=O)CCC(=O)N(O)CCCCCN", "values": [{"measurement": "Activity", "setting": "HCT-116 [1]", "result": "inactive"}]}, {"smiles": "C[C@@H]1CC[C@H]2[C@@H](C)C(OC(=O)Nc3ccccc3)O[C@@H]3O[C@@]4(C)CC[C@H]1[C@]32OO4", "note": "(some centres undefined)", "values": [{"measurement": "IC50", "setting": "A549", "result": 4.18, "unit": "µM"}, {"measurement": "IC50", "setting": "Bel-7402", "result": 4.62, "unit": "µM"}, {"measurement": "IC50", "setting": "HCT-116 [2]", "result": 0.72, "unit": "µM"}, {"measurement": "IC50", "setting": "SW-620", "result": 1.34, "unit": "µM"}, {"measurement": "selectivity ratio", "setting": "[3]", "result": 3.2}, {"measurement": "selectivity ratio", "setting": "[4]", "result": 2.9}, {"measurement": "selectivity ratio", "setting": "[5]", "result": 18.6}, {"measurement": "selectivity ratio", "setting": "[6]", "result": 9.99}, {"measurement": "IC50 at 72 h", "setting": "[7]", "result": 13.4, "unit": "µM"}]}, {"smiles": "C[C@H]1[C@@H](O)O[C@@H]2O[C@@]3(C)CC[C@H]4[C@H](C)CC[C@@H]1[C@@]24OO3", "note": "[ARTENIMOL]", "values": [{"measurement": "IC50", "setting": "A549", "result": 19.4, "unit": "µM"}, {"measurement": "IC50", "setting": "Bel-7402", "result": 43.2, "unit": "µM"}, {"measurement": "IC50", "setting": "HCT-116 [2]", "result": 5.1, "unit": "µM"}, {"measurement": "IC50", "setting": "SW-620", "result": 6.61, "unit": "µM"}, {"measurement": "selectivity ratio", "setting": "[3]", "result": 0.43}, {"measurement": "selectivity ratio", "setting": "[4]", "result": 0.2}, {"measurement": "selectivity ratio", "setting": "[5]", "result": 1.65}, {"measurement": "selectivity ratio", "setting": "[6]", "result": 1.28}, {"measurement": "IC50 at 72 h", "setting": "[7]", "result": 8.43, "unit": "µM"}, {"measurement": "inhibition at 3 µM", "setting": "HCT-116 [8]", "result": 24.5, "unit": "%"}]}, {"smiles": "CC(C)[C@H](NC(=O)OCc1ccccc1)C(=O)N[C@@H](C)C(=O)N[C@@H](CC(=O)O)C(=O)CF", "note": "(Cbz-Val-Ala-Asp-CH2F)", "values": [{"measurement": "Activity", "setting": "HCT-116 [9]", "result": "inactive"}]}, {"smiles": "CCOC(=O)c1ccc(NC2CCCCC2)c(N)c1", "values": [{"measurement": "Activity", "setting": "HCT-116 [10]", "result": "inactive"}]}, {"smiles": "Cc1ccc(NC(=O)OC2O[C@@H]3O[C@@]4(C)CC[C@@H]5[C@H](C)CC[C@@H]([C@H]2C)[C@@]35OO4)cc1", "note": "(some centres undefined)", "values": [{"measurement": "IC50", "setting": "A549", "result": 2, "unit": "µM"}, {"measurement": "IC50", "setting": "Bel-7402", "result": 8.1, "unit": "µM"}, {"measurement": "IC50", "setting": "HCT-116 [2]", "result": 0.59, "unit": "µM"}, {"measurement": "IC50", "setting": "SW-620", "result": 0.79, "unit": "µM"}, {"measurement": "selectivity ratio", "setting": "[3]", "result": 7.82}, {"measurement": "selectivity ratio", "setting": "[4]", "result": 1.93}, {"measurement": "selectivity ratio", "setting": "[5]", "result": 26.5}, {"measurement": "selectivity ratio", "setting": "[6]", "result": 19.8}, {"measurement": "IC50 at 72 h", "setting": "[7]", "result": 15.6, "unit": "µM"}]}, {"smiles": "C[C@@H]1CC[C@H]2[C@@H](C)C(OC(=O)Nc3ccc(F)cc3)O[C@@H]3O[C@@]4(C)CC[C@H]1[C@]32OO4", "note": "(some centres undefined)", "values": [{"measurement": "IC50", "setting": "A549", "result": 3.2, "unit": "µM"}, {"measurement": "IC50", "setting": "Bel-7402", "result": 8.7, "unit": "µM"}, {"measurement": "IC50", "setting": "HCT-116 [2]", "result": 0.51, "unit": "µM"}, {"measurement": "IC50", "setting": "SW-620", "result": 1.01, "unit": "µM"}, {"measurement": "selectivity ratio", "setting": "[3]", "result": 2.85}, {"measurement": "selectivity ratio", "setting": "[4]", "result": 1.05}, {"measurement": "selectivity ratio", "setting": "[5]", "result": 17.9}, {"measurement": "selectivity ratio", "setting": "[6]", "result": 9.04}, {"measurement": "IC50 at 72 h", "setting": "[7]", "result": 9.13, "unit": "µM"}]}, {"smiles": "CCCNC(=O)OC1O[C@@H]2O[C@@]3(C)CC[C@@H]4[C@H](C)CC[C@@H]([C@H]1C)[C@@]24OO3", "note": "(some centres undefined)", "values": [{"measurement": "IC50", "setting": "A549", "result": "> 10", "unit": "µM"}, {"measurement": "IC50", "setting": "Bel-7402", "result": "> 10", "unit": "µM"}, {"measurement": "IC50", "setting": "HCT-116 [2]", "result": "> 10", "unit": "µM"}, {"measurement": "IC50", "setting": "SW-620", "result": "> 10", "unit": "µM"}, {"measurement": "selectivity ratio", "setting": "[3]", "result": 13.6}, {"measurement": "selectivity ratio", "setting": "[4]", "result": "< 1.21"}, {"measurement": "selectivity ratio", "setting": "[5]", "result": 25.8}, {"measurement": "selectivity ratio", "setting": "[6]", "result": 2.78}, {"measurement": "IC50 at 72 h", "setting": "[7]", "result": 12.1, "unit": "µM"}]}]}
